For 36 molecules, EC50 results are on record in patent US11261186B2, “Biaryl derivative as GPR120 agonist” (LG CHEM, LTD., priority 2014, dated 2022).

In the assay the target is T1, hGPR120 (Homo sapiens, UniProt Q5NUL3).
T1 construct: expressed in transfected cells; host or cells: CHO-K1
T1 sequence (Q5NUL3 1-361): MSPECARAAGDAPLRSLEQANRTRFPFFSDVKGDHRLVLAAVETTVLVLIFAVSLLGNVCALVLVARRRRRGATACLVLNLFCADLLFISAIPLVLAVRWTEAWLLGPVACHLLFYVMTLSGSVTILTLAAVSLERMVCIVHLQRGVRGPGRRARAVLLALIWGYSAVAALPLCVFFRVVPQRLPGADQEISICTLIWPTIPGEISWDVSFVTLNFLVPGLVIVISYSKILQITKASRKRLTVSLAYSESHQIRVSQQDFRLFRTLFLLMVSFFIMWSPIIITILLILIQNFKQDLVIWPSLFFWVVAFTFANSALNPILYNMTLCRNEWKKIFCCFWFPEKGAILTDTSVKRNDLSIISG
Put plainly: Measurement of Activity of GPR120 Agonist (Cell-Based Assay), Calcium 5 dye fluorescence. To be noted: CHO-K1 cells expressing Ga16 and hGPR120. A digest of the protocol:
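CHO-K1 cells co-expressing Gα16 and hGPR120 were seeded, cultured 18 h at 37 °C, then loaded 1 h with Calcium 5 dye. Serially diluted agonists (final 0.5% DMSO) were added and fluorescence read at Ex 485/Em 525 nm, expressed as percent relative to 1% DMSO-only wells.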

For `O=C(O)CC1CCN(c2c(F)cc(-c3cccc(C(=O)C4CC4)n3)cc2F)CC1` [Example 312, 2-[1-[4-[6-(cyclopropanecarbonyl)-2-pyridyl]-2,6-difluoro-phenyl]-4-piperidyl]acetic acid], the EC50 is 0.2 to 2 µM.

On to `O=C(O)CC1CCN(c2c(F)cc(-c3cccc(COC4CCC4)n3)cc2F)CC1` [Example 313, 2-[1-[4-[6-(cyclobutoxymethyl)-2-pyridyl]-2,6-difluoro-phenyl]-4-piperidyl]acetic acid], for which the EC50 was over 20 µM.

Take `CCOc1cccc(-c2cc(F)c(N3CCC(CC(=O)O)CC3)c(F)c2)n1` [Example 314, 2-[1-[4-(6-ethoxy-2-pyridyl)-2,6-difluoro-phenyl]-4-piperidyl]acetic acid]: the EC50 is 0.2 to 2 µM.

For the molecule `O=C(O)CC1CCN(c2c(F)cc(-c3cccc(OCC(F)(F)F)n3)cc2F)CC1` [Example 315, 2-[1-[2,6-difluoro-4-[6-(2,2,2-trifluoroethoxy)-2-pyridyl]phenyl]-4-piperidyl]acetic acid], the EC50 was in the range of 0.2 to 2 µM.

On to `CC(Oc1cccc(-c2cc(F)c(N3CCC(CC(=O)O)CC3)c(F)c2)n1)C(F)(F)F` (stereo not drawn) [Example 316, 2-[1-[2,6-difluoro-4-[6-(2,2,2-trifluoro-1-methyl-ethoxy)-2-pyridyl]phenyl]-4-piperidyl]acetic acid], for which the EC50 was 0.2 to 2 µM.

As to `O=C(O)CC1CCN(c2c(F)cc(-c3cccc(C4CCCC4)n3)cc2F)CC1` [Example 317, 2-[1-[4-(6-cyclopentyl-2-pyridyl)-2,6-difluoro-phenyl]-4-piperidyl]acetic acid], the EC50 lay in the range of 0.2 to 2 µM.

Take `COC(c1cccc(-c2cc(F)c(N3CCC(CC(=O)O)CC3)c(F)c2)n1)C1CC1` (stereo not drawn) [Example 318, 2-[1-[4-[6-[cyclopropyl(methoxy)methyl]-2-pyridyl]-2,6-difluoro-phenyl]-4-piperidyl]acetic acid]: the EC50 fell in the range of 2 to 20 µM.

With `O=C(O)CC1CCN(c2c(F)cc(-c3cccc(OC4CCC4)n3)cc2Cl)CC1` [Example 319, 2-[1-[2-chloro-4-[6-(cyclobutoxy)-2-pyridyl]-6-fluoro-phenyl]-4-piperidyl]acetic acid], the EC50 lay in the range of 0.2 to 2 µM.

`O=C(O)CC1CCN(c2ccc(-c3cccc(OC4CCC4)n3)cc2F)CC1` [Example 320, 2-[1-[4-[6-(cyclobutoxy)-2-pyridyl]-2-fluoro-phenyl]-4-piperidyl]acetic acid]: the EC50 was 0.2 to 2 µM.

In the case of `O=C(O)CC1CN(c2c(F)cc(-c3cccc(OC4CCC4)n3)cc2F)C1` [Example 321, 2-[1-[4-[6-(cyclobutoxy)-2-pyridyl]-2,6-difluoro-phenyl]azetidin-3-yl]acetic acid], the EC50 is under 0.2 µM.

`O=C(O)CC1CN(c2c(F)cc(-c3cccc(OCC4CC4)n3)cc2F)C1` [Example 322, 2-[1-[4-[6-(cyclopropylmethoxy)-2-pyridyl]-2,6-difluoro-phenyl]azetidin-3-yl]acetic acid]: the EC50 is under 0.2 µM.

As for `Cc1cc(OC2CCC2)nc(-c2cc(F)c(N3CCC(CC(=O)O)CC3)c(F)c2)n1` [Example 323, 2-[1-[4-[4-(cyclobutoxy)-6-methyl-pyrimidin-2-yl]-2,6-difluoro-phenyl]-4-piperidyl]acetic acid], the EC50 lay within 0.2 to 2 µM.

`CCCCOc1cccc(-c2cc(F)c(N3CCC(CC(=O)O)CC3)c(F)c2)n1` [Example 324, 2-[1-[4-(6-butoxy-2-pyridyl)-2,6-difluoro-phenyl]-4-piperidyl]acetic acid]: the EC50 lay in the range of 0.2 to 2 µM.

Consider `Cc1cc(-c2cc(F)c(N3CCC(CC(=O)O)CC3)c(F)c2)nc(OC2CCC2)n1` [Example 325, 2-[1-[4-[2-(cyclobutoxy)-6-methyl-pyrimidin-4-yl]-2,6-difluoro-phenyl]-4-piperidyl]acetic acid], for which the EC50 fell in the range of 0.2 to 2 µM.

Regarding `O=C(O)CC1CCN(c2c(F)cc(-c3csc(OC4CCC4)n3)cc2F)CC1` [Example 326, 2-[1-[4-[2-(cyclobutoxy)thiazol-4-yl]-2,6-difluoro-phenyl]-4-piperidyl]acetic acid], the EC50 was 0.2 to 2 µM.

As for `Cc1cc(OC2CCC2)nc(-c2cc(F)c(N3CCC(CC(=O)O)CC3)c(F)c2)c1` [Example 327, 2-[1-[4-[6-(cyclobutoxy)-4-methyl-2-pyridyl]-2,6-difluoro-phenyl]-4-piperidyl]acetic acid], the EC50 lay within 0.2 to 2 µM.

In the case of `Cc1cc(OC2CCC2)nc(-c2cc(F)c(N3CC(CC(=O)O)C3)c(F)c2)n1` [Example 328, 2-[1-[4-[4-(cyclobutoxy)-6-methyl-pyrimidin-2-yl]-2,6-difluoro-phenyl]azetidin-3-yl]acetic acid], the EC50 was in the range of 0.2 to 2 µM.

As to `O=C(O)CC1CCN(c2c(F)cc(-c3cncc(OC4CCC4)n3)cc2F)CC1` [Example 329, 2-[1-[4-[6-(cyclobutoxy)pyrazin-2-yl]-2,6-difluoro-phenyl]-4-piperidyl]acetic acid], the EC50 is under 0.2 µM.

Turning to `O=C(O)CC1CCN(c2c(F)cc(-c3nccc(OC4CCC4)n3)cc2F)CC1` [Example 330, 2-[1-[4-[4-(cyclobutoxy)pyrimidin-2-yl]-2,6-difluoro-phenyl]-4-piperidyl]acetic acid], the EC50 was under 0.2 µM.

In the case of `Cc1cc(OCC2CC2)nc(-c2cc(F)c(N3CCC(CC(=O)O)CC3)c(F)c2)n1` [Example 331, 2-[1-[4-[4-(cyclopropylmethoxy)-6-methyl-pyrimidin-2-yl]-2,6-difluoro-phenyl]-4-piperidyl]acetic acid], the EC50 lay in the range of 0.2 to 2 µM.

Regarding `O=C(O)CC1CCN(c2c(F)cc(-c3nccc(OCC4CC4)n3)cc2F)CC1` [Example 332, 2-[1-[4-[4-(cyclopropylmethoxy)pyrimidin-2-yl]-2,6-difluoro-phenyl]-4-piperidyl]acetic acid], the EC50 is under 0.2 µM.

`O=C(O)CC1CCN(c2c(F)cc(-c3cncc(OCC4CC4)n3)cc2F)CC1` [Example 333, 2-[1-[4-[6-(cyclopropylmethoxy)pyrazin-2-yl]-2,6-difluoro-phenyl]-4-piperidyl]acetic acid]: the EC50 was under 0.2 µM.

Take `O=C(O)CC1CN(c2c(F)cc(-c3cncc(OC4CCC4)n3)cc2F)C1` [Example 334, 2-[1-[4-[6-(cyclobutoxy)pyrazin-2-yl]-2,6-difluoro-phenyl]azetidin-3-yl]acetic acid]: the EC50 is under 0.2 µM.

With `O=C(O)CC1CN(c2c(F)cc(-c3cncc(OCC4CC4)n3)cc2F)C1` [Example 335, 2-[1-[4-[6-(cyclopropylmethoxy)pyrazin-2-yl]-2,6-difluoro-phenyl]azetidin-3-yl]acetic acid], the EC50 is under 0.2 µM.

Consider `O=C(O)CC1CN(c2c(F)cc(-c3nccc(OCC4CC4)n3)cc2F)C1` [Example 337, 2-[1-[4-[4-(cyclopropylmethoxy)pyrimidin-2-yl]-2,6-difluoro-phenyl]azetidin-3-yl]acetic acid], for which the EC50 is under 0.2 µM.

Consider `CCOc1cncc(-c2cc(F)c(N3CCC(CC(=O)O)CC3)c(F)c2)n1` [Example 338, 2-[1-[4-(6-ethoxypyrazin-2-yl)-2,6-difluoro-phenyl]-4-piperidyl]acetic acid], for which the EC50 is under 0.2 µM.

With `CC(C)Oc1cncc(-c2cc(F)c(N3CCC(CC(=O)O)CC3)c(F)c2)n1` [Example 339, 2-[1-[2,6-difluoro-4-(6-isopropoxypyrazin-2-yl)phenyl]-4-piperidyl]acetic acid], the EC50 is under 0.2 µM.

As to `COc1cncc(-c2cc(F)c(N3CCC(CC(=O)O)CC3)c(F)c2)n1` [Example 340, 2-[1-[2,6-difluoro-4-(6-methoxypyrazin-2-yl)phenyl]-4-piperidyl]acetic acid], the EC50 is 0.2 to 2 µM.

For `CCCOc1cncc(-c2cc(F)c(N3CCC(CC(=O)O)CC3)c(F)c2)n1` [Example 341, 2-[1-[2,6-difluoro-4-(6-propoxypyrazin-2-yl)phenyl]-4-piperidyl]acetic acid], the EC50 was under 0.2 µM.

For the molecule `CC(C)COc1cncc(-c2cc(F)c(N3CCC(CC(=O)O)CC3)c(F)c2)n1` [Example 342, 2-[1-[2,6-difluoro-4-(6-isobutoxypyrazin-2-yl)phenyl]-4-piperidyl]acetic acid], the EC50 is under 0.2 µM.

As to `CCCCOc1cncc(-c2cc(F)c(N3CCC(CC(=O)O)CC3)c(F)c2)n1` [Example 343, 2-[1-[4-(6-butoxypyrazin-2-yl)-2,6-difluoro-phenyl]-4-piperidyl]acetic acid], the EC50 is under 0.2 µM.

On to `O=C(O)CC1CCN(c2c(F)cc(-c3cncc(OC4CCCC4)n3)cc2F)CC1` [Example 344, 2-[1-[4-[6-(cyclopentoxy)pyrazin-2-yl]-2,6-difluoro-phenyl]-4-piperidyl]acetic acid], for which the EC50 is under 0.2 µM.

As for `CCOc1ccnc(-c2cc(F)c(N3CCC(CC(=O)O)CC3)c(F)c2)n1` [Example 345, 2-[1-[4-(4-ethoxypyrimidin-2-yl)-2,6-difluoro-phenyl]-4-piperidyl]acetic acid], the EC50 is under 0.2 µM.

Consider `CC(C)Oc1ccnc(-c2cc(F)c(N3CCC(CC(=O)O)CC3)c(F)c2)n1` [Example 346, 2-[1-[2,6-difluoro-4-(4-isopropoxypyrimidin-2-yl)phenyl]-4-piperidyl]acetic acid], for which the EC50 was under 0.2 µM.

Take `CCCOc1ccnc(-c2cc(F)c(N3CCC(CC(=O)O)CC3)c(F)c2)n1` [Example 347, 2-[1-[2,6-difluoro-4-(4-propoxypyrimidin-2-yl)phenyl]-4-piperidyl]acetic acid]: the EC50 is under 0.2 µM.

With `CC(C)COc1ccnc(-c2cc(F)c(N3CCC(CC(=O)O)CC3)c(F)c2)n1` [Example 348, 2-[1-[2,6-difluoro-4-(4-isobutoxypyrimidin-2-yl)phenyl]-4-piperidyl]acetic acid], the EC50 was under 0.2 µM.
